Source: PubChem BioAssay AID1963841 (Molecular Pharmacology Branch, DTP, NCI, 2024)

Tested on: 439559-082-T-J2-PDC spheroid viability
Assay: Anticancer human tumor 439559-082-T-J2-PDC patient-derived colon adenocarcinoma cell line growth inhibition [POLQ]
Settings: spheroids with HUVEC and MSC; for IC50: curve of first compound; for viability, T/C: stronger effect = lower value
In short: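 Three-cell-type spheroids modelling solid tumor plus stroma served as the readout system; POL inhibitors were tested individually and in combination, concentration ranges set by clinical Cmax where known.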

[1] = second compound 0.0316 µM, first compound 0.0316 µM
[2] = second compound 0.0316 µM, first compound 0.1 µM
[3] = second compound 0.0316 µM, first compound 0.316 µM
[4] = second compound 0.0316 µM, first compound 1 µM
[5] = second compound 0.0316 µM, first compound 3.16 µM
[6] = second compound 0.0316 µM, first compound 10 µM
[7] = second compound 0.1 µM, first compound 0.0316 µM
[8] = second compound 0.1 µM, first compound 0.1 µM
[9] = second compound 0.1 µM, first compound 0.316 µM
[10] = second compound 0.1 µM, first compound 1 µM
[11] = second compound 0.1 µM, first compound 3.16 µM
[12] = second compound 0.1 µM, first compound 10 µM
[13] = second compound 0.316 µM, first compound 0.0316 µM
[14] = second compound 0.316 µM, first compound 0.1 µM
[15] = second compound 0.316 µM, first compound 0.316 µM
[16] = second compound 0.316 µM, first compound 1 µM
[17] = second compound 0.316 µM, first compound 3.16 µM
[18] = second compound 0.316 µM, first compound 10 µM
[19] = second compound 1 µM, first compound 0.0316 µM
[20] = second compound 1 µM, first compound 0.1 µM
[21] = second compound 1 µM, first compound 0.316 µM
[22] = second compound 1 µM, first compound 1 µM
[23] = second compound 1 µM, first compound 3.16 µM
[24] = second compound 1 µM, first compound 10 µM
[25] = second compound 3.16 µM, first compound 0.0316 µM
[26] = second compound 3.16 µM, first compound 0.1 µM
[27] = second compound 3.16 µM, first compound 0.316 µM
[28] = second compound 3.16 µM, first compound 1 µM
[29] = second compound 3.16 µM, first compound 3.16 µM
[30] = second compound 3.16 µM, first compound 10 µM
[31] = second compound 10 µM, first compound 0.0316 µM
[32] = second compound 10 µM, first compound 0.1 µM
[33] = second compound 10 µM, first compound 0.316 µM
[34] = second compound 10 µM, first compound 1 µM
[35] = second compound 10 µM, first compound 3.16 µM
[36] = second compound 10 µM, first compound 10 µM
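Also: spheroids exposed to compounds for seven days before readout.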
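For viability, T/C in this document: 100% = DMSO vehicle control viability.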

Compound: CC(C)n1c(=O)n(C)c2cnc3cc(F)c(-c4ccc(OCCCN5CCCCC5)nc4)cc3c21 + COC1C(OC(N)=O)C(O)C(Oc2ccc3c(O)c(NC(=O)c4ccc(O)c(CC=C(C)C)c4)c(=O)oc3c2C)OC1(C)C
- IC50 (second compound 0.0316 µM): > 10 µM
- IC50 (second compound 0.1 µM): > 10 µM
- IC50 (second compound 0.316 µM): > 10 µM
- IC50 (second compound 1 µM): > 10 µM
- IC50 (second compound 3.16 µM): > 10 µM
- IC50 (second compound 10 µM): > 10 µM
- viability, T/C [1]: 97.8%
- viability, T/C [2]: 102%
- viability, T/C [3]: 109%
- viability, T/C [4]: 116%
- viability, T/C [5]: 113%
- viability, T/C [6]: 102%
- viability, T/C [7]: 111%
- viability, T/C [8]: 109%
- viability, T/C [9]: 110%
- viability, T/C [10]: 119%
- viability, T/C [11]: 102%
- viability, T/C [12]: 99.4%
- viability, T/C [13]: 119%
- viability, T/C [14]: 109%
- viability, T/C [15]: 109%
- viability, T/C [16]: 112%
- viability, T/C [17]: 107%
- viability, T/C [18]: 91.2%
- viability, T/C [19]: 110%
- viability, T/C [20]: 111%
- viability, T/C [21]: 111%
- viability, T/C [22]: 109%
- viability, T/C [23]: 110%
- viability, T/C [24]: 95%
- viability, T/C [25]: 105%
- viability, T/C [26]: 107%
- viability, T/C [27]: 106%
- viability, T/C [28]: 112%
- viability, T/C [29]: 111%
- viability, T/C [30]: 97.6%
- viability, T/C [31]: 103%
- viability, T/C [32]: 96.9%
- viability, T/C [33]: 106%
- viability, T/C [34]: 106%
- viability, T/C [35]: 113%
- viability, T/C [36]: 102%

Compound: CC1COCCN1c1cc(-c2ccnn2C)c2ccnc(-c3ccn[nH]3)c2n1 (stereo not drawn) + COC1C(OC(N)=O)C(O)C(Oc2ccc3c(O)c(NC(=O)c4ccc(O)c(CC=C(C)C)c4)c(=O)oc3c2C)OC1(C)C
- IC50 (second compound 0.0316 µM): 0.257 µM
- IC50 (second compound 0.1 µM): 0.299 µM
- IC50 (second compound 0.316 µM): 0.353 µM
- IC50 (second compound 1 µM): 0.274 µM
- IC50 (second compound 3.16 µM): 0.276 µM
- IC50 (second compound 10 µM): 0.298 µM
- viability, T/C [1]: 85.6%
- viability, T/C [2]: 66.5%
- viability, T/C [3]: 44.7%
- viability, T/C [4]: 42%
- viability, T/C [5]: 23.3%
- viability, T/C [6]: 37%
- viability, T/C [7]: 82.8%
- viability, T/C [8]: 75.4%
- viability, T/C [9]: 47.4%
- viability, T/C [10]: 41.3%
- viability, T/C [11]: 27%
- viability, T/C [12]: 38.9%
- viability, T/C [13]: 92.5%
- viability, T/C [14]: 77.4%
- viability, T/C [15]: 49.5%
- viability, T/C [16]: 43.1%
- viability, T/C [17]: 25.2%
- viability, T/C [18]: 39.4%
- viability, T/C [19]: 92.1%
- viability, T/C [20]: 75.2%
- viability, T/C [21]: 44.9%
- viability, T/C [22]: 41.9%
- viability, T/C [23]: 24.2%
- viability, T/C [24]: 39.7%
- viability, T/C [25]: 94.3%
- viability, T/C [26]: 72.1%
- viability, T/C [27]: 45.1%
- viability, T/C [28]: 42.4%
- viability, T/C [29]: 25.2%
- viability, T/C [30]: 37.7%
- viability, T/C [31]: 88%
- viability, T/C [32]: 78.5%
- viability, T/C [33]: 46.4%
- viability, T/C [34]: 42.9%
- viability, T/C [35]: 25.4%
- viability, T/C [36]: 37.2%

Compound: COc1cc2cc(C(=O)CCC(=O)O)sc2cc1OC + COC1C(OC(N)=O)C(O)C(Oc2ccc3c(O)c(NC(=O)c4ccc(O)c(CC=C(C)C)c4)c(=O)oc3c2C)OC1(C)C
- IC50 (second compound 0.0316 µM): > 10 µM
- IC50 (second compound 0.1 µM): > 10 µM
- IC50 (second compound 0.316 µM): > 10 µM
- IC50 (second compound 1 µM): > 10 µM
- IC50 (second compound 3.16 µM): > 10 µM
- IC50 (second compound 10 µM): > 10 µM
- viability, T/C [1]: 94%
- viability, T/C [2]: 96.2%
- viability, T/C [3]: 90.1%
- viability, T/C [4]: 92.3%
- viability, T/C [5]: 100%
- viability, T/C [6]: 95.2%
- viability, T/C [7]: 94.1%
- viability, T/C [8]: 103%
- viability, T/C [9]: 103%
- viability, T/C [10]: 95.7%
- viability, T/C [11]: 111%
- viability, T/C [12]: 98.1%
- viability, T/C [13]: 98.6%
- viability, T/C [14]: 99.1%
- viability, T/C [15]: 96.2%
- viability, T/C [16]: 97.8%
- viability, T/C [17]: 97.1%
- viability, T/C [18]: 93.2%
- viability, T/C [19]: 98.1%
- viability, T/C [20]: 99.3%
- viability, T/C [21]: 98.8%
- viability, T/C [22]: 94.7%
- viability, T/C [23]: 96.1%
- viability, T/C [24]: 91.3%
- viability, T/C [25]: 99.1%
- viability, T/C [26]: 99.5%
- viability, T/C [27]: 84.7%
- viability, T/C [28]: 95.6%
- viability, T/C [29]: 98%
- viability, T/C [30]: 89.5%
- viability, T/C [31]: 99%
- viability, T/C [32]: 96.9%
- viability, T/C [33]: 97.9%
- viability, T/C [34]: 95.9%
- viability, T/C [35]: 111%
- viability, T/C [36]: 89.6%

Compound: COc1ccc([C@@H](O)c2cc(-c3ncnc4cc(N5CCOCC5)ccc34)c(F)cc2Cl)nn1 + COC1C(OC(N)=O)C(O)C(Oc2ccc3c(O)c(NC(=O)c4ccc(O)c(CC=C(C)C)c4)c(=O)oc3c2C)OC1(C)C
- IC50 (second compound 0.0316 µM): > 10 µM
- IC50 (second compound 0.1 µM): > 10 µM
- IC50 (second compound 0.316 µM): > 10 µM
- IC50 (second compound 1 µM): > 10 µM
- IC50 (second compound 3.16 µM): > 10 µM
- IC50 (second compound 10 µM): > 10 µM
- viability, T/C [1]: 101%
- viability, T/C [2]: 96.5%
- viability, T/C [3]: 99.1%
- viability, T/C [4]: 95.1%
- viability, T/C [5]: 90.7%
- viability, T/C [6]: 77.3%
- viability, T/C [7]: 109%
- viability, T/C [8]: 96.4%
- viability, T/C [9]: 93.5%
- viability, T/C [10]: 95.1%
- viability, T/C [11]: 83.3%
- viability, T/C [12]: 71.7%
- viability, T/C [13]: 107%
- viability, T/C [14]: 101%
- viability, T/C [15]: 92.6%
- viability, T/C [16]: 91.2%
- viability, T/C [17]: 89.9%
- viability, T/C [18]: 74.3%
- viability, T/C [19]: 100%
- viability, T/C [20]: 94%
- viability, T/C [21]: 92.9%
- viability, T/C [22]: 87.9%
- viability, T/C [23]: 86.5%
- viability, T/C [24]: 70.9%
- viability, T/C [25]: 96.6%
- viability, T/C [26]: 91.8%
- viability, T/C [27]: 97.7%
- viability, T/C [28]: 92%
- viability, T/C [29]: 82.3%
- viability, T/C [30]: 79.5%
- viability, T/C [31]: 102%
- viability, T/C [32]: 99.9%
- viability, T/C [33]: 86.5%
- viability, T/C [34]: 86.4%
- viability, T/C [35]: 78%
- viability, T/C [36]: 76.5%
